Measured values reported in US20260007133A1, “HERBICIDAL COMPOSITION COMPRISING AZINE COMPOUNDS” (BASF SE, priority 2022, published 2026).
Like-named read-outs stand apart in the source and are kept apart here.

Assays:
Format in all cases: in vivo
[1] = tested on: Setaria viridis; experiment: Greenhouse pre-emergence (PRE) herbicidal test on SETVI; settings: Setaria viridis, pre-emergence; for inhibition at 6.25 g/ha / inhibition at 12.5 g/ha: read-out: % activity
Source text: (§1) The culture containers used were plastic pots containing loamy sand with approximately 3.0% of humus as substrate. The seeds of the test plants were sown separately for each species.
For the pre-emergence treatment, the active compounds, suspended or emulsified in water, were applied directly after sowing by means of finely distributing nozzles. The containers were irrigated gently to promote germination and growth and subsequently covered with transparent plastic hoods until the plants had rooted. This cover caused uniform germination of the test plants unless this was adversely affected by the active compounds.
(§2) Depending on the species, the plants were kept at 10-25° C. and 20-35° C., respectively.
(§3) The test period extended over 2 to 4 weeks. During this time, the plants were tended and their response to the individual treatments was evaluated.
(§4) Evaluation was carried out using a scale from 0 to 100. 100 means no emergence of the plants, or complete destruction of at least the above-ground parts, and 0 means no damage or normal course of growth. A good herbicidal activity is given at values of at least 70, and very good herbicidal activity is given at values of at least 85.
(§5) If not stated differently, the respective components A and B, and if appropriate, C were formulated as a 5% by weight strength emulsion concentrate and, with addition of the amount of solvent system, introduced into the spray liquor used for applying the active compound.
(§6) As indicated application was either post emergent (POST) at the respective growth stage (GS) of the weed (BBCH code), or pre-emergent (PRE). […]

[2] = tested on: Alopecurus myosuroides; experiment: Greenhouse pre-emergence (PRE) herbicidal test on ALOMY; settings: Alopecurus myosuroides, pre-emergence; for inhibition at 6.25 g/ha: read-out: % activity
Experimental: as §1
(§7) The containers were irrigated gently to promote germination and growth and subsequently covered with transparent plastic hoods until the plants had rooted.
as §2, §3, §4, §6

[3] = tested on: Echinochloa crus-galli; experiment: Greenhouse pre-emergence (PRE) herbicidal test on ECHCG; settings: Echinochloa crus-galli, pre-emergence, 480 h, read-out: % activity
Experimental: as §1, §7, §2, §3, §4, §6

[4] = tested on: Lolium multiflorum; experiment: Greenhouse pre-emergence (PRE) herbicidal test on LOLMU; settings: Lolium multiflorum, pre-emergence, 480 h
Experimental: as §1, §7, §2, §3, §4, §6

[5] = tested on: Commelina benghalensis; experiment: Greenhouse pre-emergence (PRE) herbicidal test on COMBE; settings: Commelina benghalensis, pre-emergence, read-out: % activity
Experimental: as §1, §7, §2, §3, §4, §6

[6] = tested on: Geranium pusillum; experiment: Greenhouse post-emergence (POST) herbicidal test on GERPU; settings: Geranium pusillum, post-emergence
Experimental: as §1
(§8) For the post-emergence treatment, the test plants were grown to a plant height of from 3 to 15 cm, depending on the plant habit, and only then treated with the active compounds which had been suspended or emulsified in water. To this end, the test plants were either sown directly, and grown in the same containers, or they were first grown separately as seedlings and transplanted into the test containers a few days prior to treatment.
as §2, §3, §4, §5, §6

[7] = tested on: Euphorbia heterophylla; experiment: Greenhouse post-emergence (POST) herbicidal test on EPHHL; settings: for % activity: EPHHL POST
Experimental: as §1, §8, §2, §3, §4, §5, §6

[8] = tested on: Euphorbia heterophylla; experiment: Greenhouse pre-emergence (PRE) herbicidal test on EPHHL; settings: Euphorbia heterophylla, pre-emergence, 480 h, PRE, 20 DAT
Experimental: as §1, §7, §2, §3, §4, §6

[9] = tested on: Ipomoea hederacea; experiment: Greenhouse post-emergence (POST) herbicidal test on IPOHE; settings: for % activity: IPOHE POST
Experimental: as §1, §8, §2, §3, §4, §5
As indicated application was either post emergent (POST) at the respective growth stage (GS) of the weed (BBCH code), or pre-emergent (PRE).
Assessment was 20 days after treatment (DAT).

[10] = tested on: Ambrosia artemisiifolia; experiment: Greenhouse pre-emergence (PRE) herbicidal test on AMBEL; settings: Ambrosia artemisiifolia, pre-emergence, 480 h, PRE, AMBEL, 20 DAT, read-out: solo application % activity
Experimental: as §1, §7, §2, §3, §4, §6

[11] = tested on: Abutilon theophrasti; experiment: Greenhouse pre-emergence (PRE) herbicidal test on ABUTH; settings: Abutilon theophrasti, pre-emergence, 480 h, PRE, 20 DAT
Experimental: as §1, §7, §2, §3, §4, §6

[12] = tested on: Abutilon theophrasti; experiment: Greenhouse post-emergence (POST) herbicidal test on ABUTH; settings: for % activity: ABUTH POST
Experimental: as §1, §8, §2, §3, §4, §5, §6

[13] = tested on: Amaranthus retroflexus; experiment: Greenhouse post-emergence (POST) herbicidal test on AMARE
Experimental: as §1, §8, §2, §3, §4, §5, §6

[14] = tested on: Echinochloa crus-galli; experiment: Greenhouse post-emergence (POST) herbicidal test on ECHCG; settings: Echinochloa crus-galli, post-emergence
Experimental: as §1, §8, §2, §3, §4, §5, §6

[15] = tested on: Digitaria sanguinalis; experiment: Greenhouse post-emergence (POST) herbicidal test on DIGSA; settings: for % activity: DIGSA POST
Experimental: as §1, §8, §2, §3, §4, §5, §6

[16] = Amaranthus retroflexus, post-emergence, read-out: % activity

## CCC/C(=N\OCC)C1=C(O)CC(CC(C)SCC)CC1=O (centres unmarked) [Sethoxydim, sethoxydim]
[1]; 480 h
  inhibition at 6.25 g/ha: 5%
  inhibition at 12.5 g/ha: 60%
[1]
  inhibition at 6.25 g/ha: 5%
  inhibition at 12.5 g/ha: 60%
[2]; 480 h
  inhibition at 6.25 g/ha: 20%
[2]
  inhibition at 6.25 g/ha: 20%
[3]
  inhibition at 6.25 g/ha: 10%
  inhibition at 12.5 g/ha: 40%
[4]; read-out: % activity
  inhibition at 6.25 g/ha: 15%
[5]
  inhibition at 6.25 g/ha: 0%

## CCCC(=NOCC)C1=C(O)CC(C2CCCSC2)CC1=O (centres unmarked) [Cycloxydim, cycloxydim]
[6]; 480 h, POST, GERPU, use rate 5 gai/ha, 20 DAT, read-out: solo application % activity
  inhibition at 5 g/ha: 5%
[2]; 480 h, PRE, 20 gai/ha, 20 DAT
  pest or weed control at 20 g/ha: 60%
[2]; 480 h, PRE, ALOMY, use rate 5 gai/ha, 20 DAT, read-out: solo application % activity
  inhibition at 5 g/ha: 15%
[2]; 480 h, PRE, ALOMY, use rate 20 gai/ha, 20 DAT, read-out: solo application % activity
  inhibition at 20 g/ha: 60%
[7]; Euphorbia heterophylla, post-emergence, 480 h, POST, EPHHL, use rate 20 gai/ha, 20 DAT, read-out: solo application % activity
  inhibition at 20 g/ha: 0%
[8]; 5 gai/ha
  pest or weed control at 5 g/ha: 5%
[8]; EPHHL, use rate 5 gai/ha, read-out: solo application % activity
  inhibition at 5 g/ha: 5%
[8]; EPHHL, use rate 20 gai/ha, read-out: solo application % activity
  inhibition at 20 g/ha: 10%
[9]; Ipomoea hederacea, post-emergence, 480 h, POST, 5 gai/ha, 20 DAT
  pest or weed control at 5 g/ha: 0%
[9]; Ipomoea hederacea, post-emergence, 480 h, POST, IPOHE, use rate 5 gai/ha, 20 DAT, read-out: solo application % activity
  inhibition at 5 g/ha: 0%
[9]; Ipomoea hederacea, post-emergence, 480 h, POST, IPOHE, use rate 20 gai/ha, 20 DAT, read-out: solo application % activity
  inhibition at 20 g/ha: 0%
[10]; use rate 5 gai/ha
  inhibition at 5 g/ha: 0%
[10]; use rate 20 gai/ha
  inhibition at 20 g/ha: 0%
[11]; 5 gai/ha
  pest or weed control at 5 g/ha: 0%
[11]; ABUTH, use rate 5 gai/ha, read-out: solo application % activity
  inhibition at 5 g/ha: 0%
[12]; Abutilon theophrasti, post-emergence, 480 h, POST, 5 gai/ha, 20 DAT
  pest or weed control at 5 g/ha: 0%
[12]; Abutilon theophrasti, post-emergence, 480 h, POST, ABUTH, use rate 5 gai/ha, 20 DAT, read-out: solo application % activity
  inhibition at 5 g/ha: 0%
[12]; Abutilon theophrasti, post-emergence, 480 h, POST, ABUTH, use rate 20 gai/ha, 20 DAT, read-out: solo application % activity
  inhibition at 20 g/ha: 0%
[13]; Amaranthus retroflexus, post-emergence, 480 h, POST, AMARE, use rate 5 gai/ha, 20 DAT, read-out: solo application % activity
  inhibition at 5 g/ha: 0%

## CN1C[C@H](c2cccc(C(F)(F)F)c2)[C@@H](C(=O)Nc2ccccc2F)C1=O [Tetflupyrolimet, tetflupyrolimet]
[7]; use rate 31.25 gai/ha
  % activity: 0%
[7]; use rate 250 gai/ha
  % activity: 0%
[9]; use rate 31.25 gai/ha
  % activity: 0%
[12]; use rate 250 gai/ha
  % activity: 5%
[13]; AMARE POST, use rate 250 gai/ha
  % activity: 35%

## C#CCN1C(=O)COc2cc(F)c(N3C(=O)C4=C(CCCC4)C3=O)cc21 [Flumioxazin, flumioxazin]
[6]; 480 h, POST, GERPU, use rate 2 gai/ha, 20 DAT, read-out: solo application % activity
  inhibition at 2 g/ha: 45%
[14]; 480 h, POST, ECHCG, use rate 0.5 gai/ha, 20 DAT, read-out: solo application % activity
  inhibition at 0.5 g/ha: 0%
[14]; 480 h, POST, ECHCG, use rate 1 gai/ha, 20 DAT, read-out: solo application % activity
  inhibition at 1 g/ha: 5%
[14]; 480 h, POST, ECHCG, use rate 2 gai/ha, 20 DAT, read-out: solo application % activity
  inhibition at 2 g/ha: 30%
[1]; 480 h, PRE, SETVI, use rate 0.5 gai/ha, 20 DAT, read-out: solo application % activity
  inhibition at 0.5 g/ha: 0%
[1]; 480 h, PRE, SETVI, use rate 1 gai/ha, 20 DAT, read-out: solo application % activity
  inhibition at 1 g/ha: 0%
[1]; 480 h, PRE, SETVI, use rate 2 gai/ha, 20 DAT, read-out: solo application % activity
  inhibition at 2 g/ha: 0%
[2]; 480 h, PRE, ALOMY, use rate 0.25 gai/ha, 20 DAT, read-out: solo application % activity
  inhibition at […]: 0%
[2]; 480 h, PRE, ALOMY, use rate 0.5 gai/ha, 20 DAT, read-out: solo application % activity
  inhibition at 0.5 g/ha: 0%
[7]; Euphorbia heterophylla, post-emergence, 480 h, POST, EPHHL, use rate 1 gai/ha, 20 DAT, read-out: solo application % activity
  inhibition at 1 g/ha: 60%
[8]; EPHHL, use rate 0.25 gai/ha, read-out: solo application % activity
  inhibition at […]: 0%
[8]; EPHHL, use rate 0.5 gai/ha, read-out: solo application % activity
  inhibition at 0.5 g/ha: 5%
[8]; EPHHL, use rate 1 gai/ha, read-out: solo application % activity
  inhibition at 1 g/ha: 5%
[8]; EPHHL, use rate 2 gai/ha, read-out: solo application % activity
  inhibition at 2 g/ha: 10%
[10]; use rate 0.5 gai/ha
  inhibition at 0.5 g/ha: 0%
[10]; use rate 2 gai/ha
  inhibition at 2 g/ha: 0%
[15]; Digitaria sanguinalis, post-emergence, 480 h, POST, DIGSA, use rate 1 gai/ha, 20 DAT, read-out: solo application % activity
  inhibition at 1 g/ha: 10%
[15]; Digitaria sanguinalis, post-emergence, 480 h, POST, DIGSA, use rate 2 gai/ha, 20 DAT, read-out: solo application % activity
  inhibition at 2 g/ha: 25%
[11]; ABUTH, use rate 0.25 gai/ha, read-out: solo application % activity
  inhibition at […]: 0%
[11]; ABUTH, use rate 0.5 gai/ha, read-out: solo application % activity
  inhibition at 0.5 g/ha: 0%
[11]; ABUTH, use rate 1 gai/ha, read-out: solo application % activity
  inhibition at 1 g/ha: 0%
[12]; Abutilon theophrasti, post-emergence, 480 h, POST, ABUTH, use rate 2 gai/ha, 20 DAT, read-out: solo application % activity
  inhibition at 2 g/ha: 70%
[4]; PRE, LOLMU, use rate 0.5 gai/ha, 20 DAT, read-out: solo application % activity
  inhibition at 0.5 g/ha: 0%

## Cc1cccc(C2CC2)c1Oc1nnc(Cl)cc1OC(=O)N1CCOCC1 [Cyclopyrimorate, cyclopyrimorate]
[9]; use rate 25 gai/ha
  % activity: 40%
[15]; use rate 25 gai/ha
  % activity: 10%
[15]; use rate 200 gai/ha
  % activity: 40%
[12]; use rate 25 gai/ha
  % activity: 5%

## O=C(O)CNCP(=O)(O)O [Glyphosate, glyphosate]
[6]; read-out: % activity
  inhibition at 100 g/ha: 45%
[14]; read-out: % activity
  inhibition at 100 g/ha: 30%
  inhibition at 200 g/ha: 35%
[9]; Ipomoea hederacea, post-emergence, read-out: % activity
  inhibition at 200 g/ha: 15%
[12]; Abutilon theophrasti, post-emergence, read-out: % activity
  inhibition at 200 g/ha: 25%
[13]; [16]
  inhibition at 100 g/ha: 10%
  inhibition at 200 g/ha: 80%
